The record followed here is paper PMC3392449 (Journal of Immunology (Baltimore, Md. : 1950), 2012).

Format in all cases: cell-based, human
For test [1], the system named is extract-stimulated PBMC cultures from allergic donors. Briefly: IL-5 plus IFN-γ ELISPOT of Bla g extract-expanded PBMC. The conditions noted are these: share of the region in the total Bla g peptide response (total SFC).
Test [2] has as its system extract-stimulated PBMC cultures from allergic donors (IL-5 production). As to the kind of experiment: IL-5 ELISPOT of in vitro expanded PBMC. The conditions noted are these: donor U00023 (Figure 3), result in words.
The test system of test [3] is extract-stimulated PBMC cultures from allergic donors (IFN-γ production). Briefly: IFN-γ ELISPOT of in vitro expanded PBMC. The conditions noted are these: donor U00023 (Figure 3), result in words.

Consider PEQIQLLKKAFDAFD [Region 23], for which the “% Total response” value in test [1] is 5.1%. The IL-5 response entry in test [2] is listed as “associated only with IL-5 production”.
On to ISDFRAAIANYHYDA [Region 13], for which the “% Total response” value in test [1] is given as 8.6%.
In the case of GNQNFLTVFDSTSCN [Region 7], the “% Total response” value in test [1] is listed as 0.2%. The IL-5 response entry in test [2] is given as “no IL-5”. Besides, in test [3], the IFN-γ response entry is listed as “produced IFN-γ”.
Consider FAVATITHAAELQRV [Region 5], for which the “% Total response” value in test [1] is recorded as 3.5%. Besides, in test [2], the IL-5 response result was “no IL-5”. In test [3], the IFN-γ response result is “produced IFN-γ”.
